Measured values as given in patent US11596611B2, “Hepatitis B antiviral agents” (ENANTA PHARMACEUTICALS, INC., priority 2017, dated 2023).

Test system: HBV
Assay: HepAD38 antiviral assay: reduction of viral product accumulation (virion DNA by qPCR, HBsAg or HBeAg by ELISA)
Format: cell-based, hepatitis B virus
Conditions: Hepatitis B virus, 120 h; HepAD38 cells, five days after compound addition; 50% reduction of viral product vs no drug controls; read-out: HepAD38 EC50
Outline: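 Readouts were qPCR of lysed virion DNA plus ELISA for HBsAg or HBeAg, samples diluted into linear range. HepAD38 cells, washed free of tetracycline, received compound diluted 1:200 from DMSO for 5 days; 8-day variant refreshed media and compound on days 2 and 5.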

Row | SMILES | EC50 [nM]
1 | C=CC1(O)CC(S(=O)(=O)c2cc(C(=O)Nc3ccc(F)c(F)c3)ccc2Cl)C1 (stereo not shown) [Example 260] | > 200
2 | CC(C)C(O)[C@]1(O)C2CCC1C[C@@H](S(=O)(=O)c1cc(C(=O)Nc3ccc(F)c(F)c3)ccc1Cl)C2 (stereo partly shown) [Example 281] | > 200
3 | O=C(Nc1ccc(F)c(F)c1)c1ccc(Cl)c(S(=O)(=O)[C@H]2CC3CCC(C2)[C@]3(O)C(O)c2ccccc2)c1 (stereo partly shown) [Example 283] | 100 to 200
4 | O=C(Nc1ccc(F)c(F)c1)c1ccc(Cl)c(S(=O)(=O)[C@H]2CC3CCC(C2)[C@]3(O)C(O)c2ccccn2)c1 (stereo partly shown) [Example 284] | < 104
5 | O=C(Nc1ccc(F)c(F)c1)c1ccc(Cl)c(S(=O)(=O)[C@H]2CC3CCC(C2)[C@]3(O)C(O)c2cccnc2)c1 (stereo partly shown) [Example 285] | < 104
6 | O=C(Nc1ccc(F)c(F)c1)c1ccc(Cl)c(S(=O)(=O)[C@H]2CC3CCC(C2)[C@]3(O)C(O)c2ccncc2)c1 (stereo partly shown) [Example 286] | 100 to 200
7 | Nc1cc(NC(=O)c2ccc(Cl)c(S(=O)(=O)[C@H]3CC4CCC(C3)[C@]4(O)C(O)c3ncc[nH]3)c2)ccc1F (stereo partly shown) [Example 287] | > 200
8 | Cn1nccc1C(O)[C@]1(O)C2CCC1C[C@@H](S(=O)(=O)c1cc(C(=O)Nc3ccc(F)c(F)c3)ccc1Cl)C2 (stereo partly shown) [Example 288] | < 104
9 | O=C(Nc1ccc(F)c(F)c1)c1ccc(Cl)c(S(=O)(=O)[C@H]2CC3CCC(C2)[C@]3(O)C(O)c2ccc(F)c[n+]2[O-])c1 (stereo partly shown) [Example 292] | > 200
10 | Cc1ccc(C(O)[C@]2(O)C3CCC2C[C@@H](S(=O)(=O)c2cc(C(=O)Nc4ccc(F)c(F)c4)ccc2Cl)C3)nc1 (stereo partly shown) [Example 293] | < 104
11 | Cc1cccc([C@H](O)[C@@]2(O)C3CC[C@H]2C[C@H](S(=O)(=O)c2cc(C(=O)Nc4ccc(F)c(F)c4)ccc2Cl)C3)n1 [Example 294a] | < 104
12 | Cc1cccc([C@@H](O)[C@@]2(O)C3CC[C@H]2C[C@H](S(=O)(=O)c2cc(C(=O)Nc4ccc(F)c(F)c4)ccc2Cl)C3)n1 [Example 294b] | < 104
13 | Cc1cccnc1C(O)[C@@]1(O)C2CC[C@H]1C[C@H](S(=O)(=O)c1cc(C(=O)Nc3ccc(F)c(F)c3)ccc1Cl)C2 (stereo partly shown) [Example 295] | < 104
14 | Cc1ccnc([C@H](O)[C@@]2(O)C3CC[C@H]2C[C@H](S(=O)(=O)c2cc(C(=O)Nc4ccc(F)c(F)c4)ccc2Cl)C3)c1 [Example 296a] | < 104
15 | Cc1ccnc([C@@H](O)[C@@]2(O)C3CC[C@H]2C[C@H](S(=O)(=O)c2cc(C(=O)Nc4ccc(F)c(F)c4)ccc2Cl)C3)c1 [Example 296b] | < 104
16 | O=C(Nc1ccc(F)c(F)c1)c1ccc(Cl)c(S(=O)(=O)[C@H]2CC3CCC(C2)[C@]3(O)C(O)c2ncccc2F)c1 (stereo partly shown) [Example 297] | < 104
17 | O=C(Nc1ccc(F)c(F)c1)c1ccc(Cl)c(S(=O)(=O)[C@@H]2CC3CC[C@@H](C2)[C@@]3(O)C(O)c2ccnc(Br)c2F)c1 (stereo partly shown) [Example 298] | < 104
18 | O=C(Nc1ccc(F)c(F)c1)c1ccc(Cl)c(S(=O)(=O)[C@@H]2CC3CC[C@@H](C2)[C@@]3(O)[C@H](O)c2cc(F)ccn2)c1 [Example 299] | < 104
19 | O=C(Nc1ccc(F)c(F)c1)c1ccc(Cl)c(S(=O)(=O)[C@@H]2CC3CC[C@@H](C2)[C@@]3(O)C(O)c2ccc(C(F)(F)F)cn2)c1 (stereo partly shown) [Example 300] | > 200
20 | O=C(Nc1ccc(F)c(F)c1)c1ccc(Cl)c(S(=O)(=O)[C@@H]2CC3CC[C@@H](C2)[C@@]3(O)C(O)c2ccc3ccccc3n2)c1 (stereo partly shown) [Example 301] | < 104
21 | CC(C)N(C)C[C@]1(O)C2CCC1C[C@@H](S(=O)(=O)c1cc(C(=O)Nc3ccc(F)c(F)c3)ccc1Cl)C2 [Example 304] | < 104
22 | O=C(Nc1ccc(F)c(F)c1)c1ccc(Cl)c(S(=O)(=O)[C@@H]2CC3CC[C@@H](C2)[C@@]3(O)Cn2ccc(=O)[nH]c2=O)c1 [Example 305] | < 104

Row | SMILES | EC50 [nM]
23 | O=C(Nc1ccc(F)c(F)c1)c1ccc(Cl)c(S(=O)(=O)[C@H]2CC3CCC(C2)[C@]3(O)CN2CCOC2=O)c1 [Example 306] | < 104
24 | CC(C)N(C)[C@H]1C2CCC1C[C@H](S(=O)(=O)c1cc(C(=O)Nc3ccc(F)c(F)c3)ccc1Cl)C2 [Example 307] | 100 to 200
25 | O=C(Nc1ccc(F)c(F)c1)c1ccc(Cl)c(S(=O)(=O)[C@H]2CC3CCC(C2)[C@@]3(O)C(O)CN2CCCS2(=O)=O)c1 (stereo partly shown) [Example 309] | 100 to 200
26 | O=C(Nc1ccc(F)c(F)c1)c1ccc(Cl)c(S(=O)(=O)[C@H]2CC3CC[C@@H](C2)[C@@]3(O)C(O)Cn2cccn2)c1 (stereo partly shown) [Example 310] | > 200
27 | O=C(Nc1ccc(F)c(F)c1)c1ccc(Cl)c(S(=O)(=O)[C@H]2CC3CC[C@@H](C2)[C@@]3(O)C(O)Cn2ccnc2)c1 (stereo partly shown) [Example 311] | > 200
28 | O=C(Nc1ccc(F)c(F)c1)c1ccc(Cl)c(S(=O)(=O)[C@H]2CC3CC[C@@H](C2)[C@@]3(O)C(O)CN2CCOC2=O)c1 (stereo partly shown) [Example 312] | > 200
29 | O=C(Nc1ccc(F)c(F)c1)c1ccc(Cl)c(S(=O)(=O)[C@H]2CC3CCC(C2)[C@]3(O)C(O)C(O)CN2CCOC2=O)c1 (stereo partly shown) [Example 313] | < 104
30 | O=C(Nc1ccc(F)c(F)c1)c1ccc(Cl)c(S(=O)(=O)[C@H]2CC3CCC(C2)[C@]3(O)C(O)Cn2cccn2)c1 (stereo partly shown) [Example 314] | < 104
31 | O=C(Nc1ccc(F)c(F)c1)c1ccc(Cl)c(S(=O)(=O)[C@H]2CC3CCC(C2)[C@]3(O)C(O)CN2CCOC2=O)c1 (stereo partly shown) [Example 315] | > 200
32 | O=C(Nc1ccc(F)c(F)c1)c1ccc(Cl)c(S(=O)(=O)[C@H]2CC3CCC(C2)[C@]3(O)C(O)Cc2ncc[nH]2)c1 (stereo partly shown) [Example 316] | > 200
33 | O=C(Nc1ccc(F)c(F)c1)c1ccc(Cl)c(S(=O)(=O)[C@H]2CC3CCC(C2)[C@]3(O)C(O)Cc2cccnc2)c1 (stereo partly shown) [Example 318] | > 200
34 | O=C(Nc1ccc(F)c(F)c1)c1ccc(Cl)c(S(=O)(=O)[C@H]2CC3CCC(C2)[C@]3(O)C(O)C(O)CN2CCCS2(=O)=O)c1 (stereo partly shown) [Example 320] | < 104
35 | O=C(Nc1ccc(F)c(F)c1)c1ccc(Cl)c(S(=O)(=O)[C@H]2CC3CCC(C2)[C@]3(O)C(O)C(O)c2cccnc2)c1 (stereo partly shown) [Example 321] | < 104
36 | Cn1cc(C(O)C(O)[C@]2(O)C3CCC2C[C@@H](S(=O)(=O)c2cc(C(=O)Nc4ccc(F)c(F)c4)ccc2Cl)C3)cn1 (stereo partly shown) [Example 322] | < 104
37 | O=C(Nc1ccc(F)c(F)c1)c1ccc(Cl)c(S(=O)(=O)[C@@H]2CC3C[C@H](O)C(C2)[C@@]3(O)CO)c1 (stereo partly shown) [Example 327] | 100 to 200
38 | O=C(Nc1ccc(F)c(F)c1)c1ccc(Cl)c(S(=O)(=O)[C@@H]2CC3C[C@@H](O)C(C2)[C@@]3(O)CO)c1 (stereo partly shown) [Example 328] | 100 to 200
39 | O=C(Nc1ccc(F)c(F)c1)c1ccc(Cl)c(S(=O)(=O)[C@H]2CC3CCC(C2)[C@]3(O)CO[C@@H]2O[C@H](C(=O)O)[C@@H](O)[C@H](O)[C@H]2O)c1 [Example 330] | > 200
40 | CC[C@H](O)[C@@H](O)[C@]1(O)C2CCC1C[C@@H](S(=O)(=O)c1cc(C(=O)Nc3ccc(F)c(F)c3)ccc1Cl)C2 [Example 334] | < 104
41 | CC(=O)C(=O)[C@@]1(O)C2CC[C@H]1C[C@H](S(=O)(=O)c1cc(C(=O)Nc3ccc(F)c(F)c3)ccc1Cl)C2 [Example 336] | < 104
42 | C[C@H](O)[C@@H](O)[C@@]1(O)C2CC(O)C1C[C@H](S(=O)(=O)c1cc(C(=O)Nc3ccc(F)c(F)c3)ccc1Cl)C2 (stereo partly shown) [Example 337] | > 200
43 | C[C@H](O)[C@@H](O)[C@]1(O)C2CCC1C[C@@H](S(=O)(=O)c1cc(C(=O)Nc3ccc(F)c(F)c3)n(C)c1)C2 [Example 341] | > 200
